In patent publication US7994185B2, “Benzene sulfonamide thiazole and oxazole compounds” (Glaxo Smith Kline LLC, priority 2008, dated 2011):
Counter-ions that a name gives are not always drawn. Like-named read-outs stand apart in the source and are kept apart here.

Experiments:
[1] = tested on: Human colon tumor cells (Colo205); test: Cell growth inhibition assay (CellTiter-Glo), Colo205; format: cell-based
Summary of the method: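 Luminescent ATP read-out (CellTiter-Glo) served as a proxy for cell number; percent growth inhibition was calculated against DMSO vehicle wells. Cells were treated for 3 days at 37 °C with serially diluted compound, 0.2% DMSO final.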

[2] = tested on: Human melanoma cancer cells (SK-MEL-28); test: Cell growth inhibition assay (CellTiter-Glo), SK-MEL-28; format: cell-based
pERK (pERK/tERK) = test: Pharmacodynamic effect, pERK/tERK in A375P F11s xenograft tumors; format: in vivo, mice; conditions: Mus musculus, read-out: inhibition of pERK (pERK/tERK)
Description: Animals were housed in pathogen free conditions and handled with aseptic technique. […] Detached cells were collected, centrifuged (1500 rpm, 5 min, 4° C.) and rinsed to remove the trypsin solution. Cells were resuspended in PBS without magnesium or calcium and counted. Cells were spun as previously to remove PBS and a single cell suspension was created either in 50% Matrigel: 50% PBS (v:v) or 100% PBS so that a 100 μL subcutaneous injection would deliver the required number of cells per mouse. The A375P F11s melanoma line was injected with Matrigel at 4 million cells per mouse. Tumors were established (˜150-300 mm^3) for all cell lines within 2-4 weeks post-injection.
At 2 h following oral administration of compound mice were euthanized using carbon dioxide. Tumors were carefully excised, homogenized using Medimachine (BD Bioscience) with 1 ml of lysis buffer (25 mM Tris-HCl (pH 7.5), 2 mM EDTA (pH 8.0), 2 mM EGTA (pH 8.0), 1% Triton X-100, 0.1% SDS, 50 mM Na—B—PO4, 2 mM NaVO4, 4 mM Na-Pyr-PO4, 2× phosphatase inhibitor cocktail. Crude homogenate was transferred to a 12 ml polypropylene tube containing 1.5 ml of lysis buffer and kept on ice. Following homogenization of all samples, 1 ml of homogenate was transferred to an eppendorf tube and centrifuged at 14,000 rpm for 15 min at 4° C. Five hundred microliter of clarified lysate was transferred to a new tube, flash frozen and processed for quantitation of pERK and tERK using western blot or Elisa (MSD) assays. […] BioRad dye was added to BSA dilutions and diluted test lysates. […] Comparison to the standard curve provides a relative measurement of protein concentration. […] The gels were transferred onto nitro-cellulose membranes using the iBlot transfer apparatus, which were then blocked and incubated with different primary antibodies overnight at 4° C. Western blots dually probed against pERK and tERK were scanned using LI-COR Odyssey® reader. A ratio of the immunofluorescent density obtained for pERK/tERK is calculated and expressed as a ratio (in percentage) to control untreated samples. For determination of pERK/tERK ratio by ELISA, MesoScale Discovery (MSD) (cat# K15107) plate were used according to manufacturer's instructions. In brief, MSD plates were block with 150 μl/well of blocking buffer for 1 hr before being washed 4 times with 200 μl of washing buffer. Thirty microliter (30 μl) of serially diluted samples was added to wells and plates were incubated overnight at 4° C. under slow agitation (˜500 rpm). Plates were washed 4 times in 200 μl 1× Tris wash buffer and 25 μl detection antibody solution was added to all wells and incubated at room temperature for 1 hr (˜500 rpm). Plates were washed 4 times in 200 μl wash buffer and 150 μl of read buffer was added to all wells. Plates were read on MSD.SI6000. In this assay vehicle and compound treated samples were tested at 4 different dilutions to allow linear range coverage of the assay. From pERK and tERK signal, background (BSA signal) was subtracted and ratio of pERK/tERK determined and normalized to untreated vehicle samples, arbitrarily set at 100%.

[3] = target: T1, BRAFV600E full-length (amino acids 2-766) (Homo sapiens, UniProt P15056, V600E); test: B-Raf Accelerated MEK ATPase assay (BRAMA); format: biochemical; conditions: categorized
T1 construct: His6-tagged BRAFV600E full-length (amino acids 2-766); His6; made in house; host or cells: baculovirus expression system (insect cells)
T1 sequence (P15056 2-766 V600E): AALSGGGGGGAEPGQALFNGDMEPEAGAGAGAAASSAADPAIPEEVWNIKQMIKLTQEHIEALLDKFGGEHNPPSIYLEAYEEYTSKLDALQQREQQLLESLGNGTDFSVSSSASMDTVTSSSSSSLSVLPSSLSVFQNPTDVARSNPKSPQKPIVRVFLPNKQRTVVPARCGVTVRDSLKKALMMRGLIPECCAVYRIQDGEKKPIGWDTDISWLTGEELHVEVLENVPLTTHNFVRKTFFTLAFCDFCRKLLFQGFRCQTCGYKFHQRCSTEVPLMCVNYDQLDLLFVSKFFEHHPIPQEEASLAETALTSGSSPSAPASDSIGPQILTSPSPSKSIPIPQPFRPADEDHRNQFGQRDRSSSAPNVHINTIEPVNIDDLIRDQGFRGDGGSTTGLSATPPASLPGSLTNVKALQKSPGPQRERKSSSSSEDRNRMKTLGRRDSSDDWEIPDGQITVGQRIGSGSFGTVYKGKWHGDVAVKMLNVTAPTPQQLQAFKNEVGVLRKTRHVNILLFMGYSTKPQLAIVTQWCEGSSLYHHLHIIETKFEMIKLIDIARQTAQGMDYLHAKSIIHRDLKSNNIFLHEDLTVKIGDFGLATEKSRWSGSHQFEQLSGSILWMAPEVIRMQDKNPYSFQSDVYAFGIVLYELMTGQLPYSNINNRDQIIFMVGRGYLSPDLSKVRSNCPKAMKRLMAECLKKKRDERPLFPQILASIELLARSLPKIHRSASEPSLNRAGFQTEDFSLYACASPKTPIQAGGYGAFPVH
Summary of the method: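 Coupled-enzyme readout: ADP generated by MEK-mediated ATP hydrolysis, uncoupled from ERK phosphorylation, is linked to NADH oxidation through pyruvate kinase and lactate dehydrogenase.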

A375P F11s = test: 3-day proliferation assays, selection of A375P F11s clone; format: cell-based, human; conditions: A375P F11s subclone of A375P
Description: Activity of select exemplified compounds was tested in vivo against A375 PF11s (melanoma cell line encoding a B-Raf V600E mutation) xenograft mouse model. The A375P F11s cell line, encoding a mutation for BRAF^V600E, was subcloned from the A375P human melanoma cell line (obtained from ATCC, Cat # CRL-1619) by limiting dilution and selected based on high (90%) sensitivity to the BRAF inhibitor, SB-590885 (commercially available), in 3-day proliferation assays. The selected clone (A375P F11s) was isolated and mutation in B-Raf (T1799A) encoding the V600E amino acid change was reconfirmed.

[4] = COLO 205, 72 h, Table 2a, 3 days incubation, read-out: Activity in Colo205 Tumor Cells
[5] = SK-MEL-28, 72 h, Table 3a, 3 days incubation, read-out: Activity in SK-MEL-28 Tumor Cells
[6] = B-Raf Activity, Table 1a, highest pIC50 for the one or more runs
[7] = B-Raf pIC50, Table 1b, later runs, average pIC50 for the one or more runs
[8] = COLO 205, Table 2b, later runs, average for the one or more runs, categorized, read-out: IC50 for Colo205
[9] = SK-MEL-28, Table 3b, later runs, average for the one or more runs, categorized, read-out: IC50 for SK-MEL-28
[10] = A375P F11s xenograft tumors, single oral dose of 100 mg/kg, 2 h after administration
[11] = Table 1b, later runs, average pIC50 for the one or more runs, read-out: B-Raf pIC50 (converted)

`CC(C)(C)c1nc(-c2cccc(NS(=O)(=O)c3c(F)cccc3F)c2F)c(-c2ccnc(N)n2)s1` [Example 58, N-{3-[5-(2-amino-4-pyrimidinyl)-2-(1,1-dimethylethyl)-1,3-thiazol-4-yl]-2-fluorophenyl}-2,6-difluorobenzenesulfonamide] showed an IC50 [1, 4] of less than 100 nM, an IC50 [2, 5] of less than 100 nM and an inhibition at 100 mg/kg (pERK (pERK/tERK); A375P, po, 2 h) of no less than 30%.

Work on `CC(C)(C)c1nc(-c2cccc(NS(=O)(=O)c3cc(F)ccc3F)c2F)c(-c2ccncn2)s1` [Example 66, N-{3-[2-(1,1-Dimethylethyl)-5-(4-pyrimidinyl)-1,3-thiazol-4-yl]-2-fluorophenyl}-2,5-difluorobenzenesulfonamide] yielded an IC50 [3, 6] of less than 100 nM, an IC50 [3, 7] of no more than 3.16 nM and an IC50 [1, 4] of less than 100 nM. It also gave an IC50 [1, 8] of less than 100 nM, an IC50 [2, 5] of less than 100 nM and an IC50 [2, 9] of less than 100 nM. The inhibition at 100 mg/kg (pERK (pERK/tERK); [10]) was no less than 30%.

`CN(C)CCOc1ccc(-c2nc(-c3ccncc3)c(-c3ccc4c(c3)CC/C4=N\O)[nH]2)cc1` [SB-590885] was tested, and the “sensitivity to the BRAF inhibitor in 3-day proliferation assays” value (A375P F11s) was 90%.

In the case of `Nc1nccc(-c2sc(N3CCOCC3)nc2-c2cccc(NS(=O)(=O)c3cc(F)ccc3F)c2Cl)n1` [Example 156], the IC50 [3, 6] is reported as less than 100 nM, the IC50 [3, 7] is reported as no more than 3.16 nM and the IC50 [1, 4] is reported as less than 100 nM. For the same compound, the IC50 [1, 8] was less than 100 nM, the IC50 [2, 5] was less than 100 nM and the IC50 [2, 9] was less than 100 nM. For the same compound, the inhibition at 100 mg/kg (pERK (pERK/tERK); [10]) was no less than 30%.

`Nc1nccc(-c2sc(C3CCOCC3)nc2-c2cccc(NS(=O)(=O)c3c(F)cccc3F)c2F)n1` [Example 64, N-{3-[5-(2-amino-4-pyrimidinyl)-2-(tetrahydro-2H-pyran-4-yl)-1,3-thiazol-4-yl]-2-fluorophenyl}-2,6-difluorobenzenesulfonamide] was tested, and the IC50 [3, 6] was less than 100 nM, the IC50 [3, 7] was no more than 3.16 nM and the IC50 [1, 4] was less than 100 nM. It also gave an IC50 [1, 8] of less than 100 nM, an IC50 [2, 5] of less than 100 nM and an IC50 [2, 9] of less than 100 nM. It also gave an inhibition at 100 mg/kg (pERK (pERK/tERK); [10]) of no less than 30%.

Compound `Nc1nccc(-c2sc(N3CCOCC3)nc2-c2cccc(NS(=O)(=O)c3c(F)cccc3F)c2F)n1` [Example 59, N-{3-[5-(2-Amino-4-pyrimidinyl)-2-(4-morpholinyl)-1,3-thiazol-4-yl]-2-fluorophenyl}-2,6-difluorobenzenesulfonamide] has an IC50 [3, 6] of less than 100 nM, an IC50 [3, 11] of 3.16 to 31.6 nM and an IC50 [1, 4] of 100 to 1000 nM. The IC50 [1, 8] was 100 to 1000 nM, the IC50 [2, 5] was 100 to 1000 nM and the IC50 [2, 9] was 100 to 1000 nM. The inhibition at 100 mg/kg (pERK (pERK/tERK); [10]) was no less than 30%.

`Cc1nccc(-c2sc(C3CCOCC3)nc2-c2cccc(NS(=O)(=O)c3c(F)cccc3F)c2Cl)n1` [Example 25, N-{2-Chloro-3-[5-(2-methyl-4-pyrimidinyl)-2-(tetrahydro-2H-pyran-4-yl)-1,3-thiazol-4-yl]phenyl}-2,6-difluorobenzenesulfonamide trifluoroacetate] showed an IC50 [3, 6] of less than 100 nM, an IC50 [3, 11] of 3.16 to 31.6 nM and an IC50 [1, 4] of 100 to 1000 nM. It also gave an IC50 [1, 8] of 100 to 1000 nM, an IC50 [2, 5] of less than 100 nM and an IC50 [2, 9] of less than 100 nM. For the same compound, the inhibition at 100 mg/kg (pERK (pERK/tERK); [10]) was no less than 30%.

`O=S(=O)(Nc1cccc(-c2nc(C3CCOCC3)sc2-c2ccncn2)c1Cl)c1c(F)cccc1F` [Example 26, N-{2-Chloro-3-[5-(4-pyrimidinyl)-2-(tetrahydro-2H-pyran-4-yl)-1,3-thiazol-4-yl]phenyl}-2,6-difluorobenzenesulfonamide] gave an IC50 [3, 6] of less than 100 nM, an IC50 [3, 7] of no more than 3.16 nM and an IC50 [1, 4] of less than 100 nM. It also gave an IC50 [1, 8] of less than 100 nM, an IC50 [2, 5] of less than 100 nM and an IC50 [2, 9] of less than 100 nM. The inhibition at 100 mg/kg (pERK (pERK/tERK); [10]) was no less than 30%.

With `Nc1nccc(-c2sc(N3CCOCC3)nc2-c2cccc(NS(=O)(=O)c3ccco3)c2Cl)n1` [Example 24, N-{3-[5-(2-Amino-4-pyrimidinyl)-2-(4-morpholinyl)-1,3-thiazol-4-yl]-2-chlorophenyl}-2-furansulfonamide] the IC50 [3, 6] was less than 100 nM, the IC50 [3, 7] was no more than 3.16 nM and the IC50 [1, 4] was less than 100 nM. For the same compound, the IC50 [1, 8] was 100 to 1000 nM, the IC50 [2, 5] was less than 100 nM and the IC50 [2, 9] was 100 to 1000 nM. For the same compound, the inhibition at 100 mg/kg (pERK (pERK/tERK); [10]) was no less than 30%.

With `Cc1nccc(-c2sc(C(C)(C)C)nc2-c2cccc(NS(=O)(=O)c3cc(F)ccc3F)c2F)n1` [Example 65, N-{3-[2-(1,1-dimethylethyl)-5-(2-methyl-4-pyrimidinyl)-1,3-thiazol-4-yl]-2-fluorophenyl}-2,5-difluorobenzenesulfonamide] the IC50 [3, 6] was less than 100 nM, the IC50 [3, 7] was no more than 3.16 nM and the IC50 [1, 4] was less than 100 nM. For the same compound, the IC50 [1, 8] was less than 100 nM, the IC50 [2, 5] was less than 100 nM and the IC50 [2, 9] was less than 100 nM. It also gave an inhibition at 100 mg/kg (pERK (pERK/tERK); [10]) of no less than 30%.
